# “And” between values parts separate entries of the source, which are not always exact repeats. Equal entries are not always repeated. Marks after values point to notes of the source that are not given here.
# Test system: wild-type (CD-1) mice
# Experiment: Daily bolus SC injection of NC2st on bone growth in wild-type (CD-1) mice
# Assay type: in vivo
# Procedure: The study was designed to evaluate the relationship between different doses of NC2st and the pharmacologic response on bone. The relationship was evaluated by measuring the effect of increasing doses of NC2st (SEQ ID NO: 502; as described, e.g., in Example 1) on bone growth in wild-type (WT, CD-1) mice. Bone growth response of wild-type and Fgfr3^369/+ (ACH) mice was compared.
# CD-1 mice are a standard rodent species for use in pharmacodynamic studies. Briefly, nursing mothers with fostered female pups of 13 to 16 days were obtained. At the age of 21 days, pups were weaned and randomized based on body weight into treatment groups.
# The animals received NC2st as a subcutaneous injection into the interscapular region as described in Table 11 below.
# CD-1 mice were treated at 3 weeks old at the indicated doses for 35 consecutive days, followed by necropsy 24 hours after the last injection.
# Ex vivo radiographs of whole body, rib cage, and skull were taken using a Faxitron model MX-20 DC4 under constant conditions (26 kV, 10 sec at 1×, 3× and 3× magnification, respectively). Bone measurements were performed on the radiographic images of all animals in a blinded fashion using the software Image Processing and Analysis in Java (ImageJ).
# Bone samples were cleaned of excess tissue (not scraped) and fixed. Length of femur and tibia was measured using a caliper.
# [1] = day 36, Tx-10 (10 mg/kg SC once daily)
# [2] = day 36, Tx-30 (30 mg/kg SC once daily)
# [3] = day 36, Tx-100 (100 mg/kg SC once daily)
substance,measurement,setting,value
"NC2st: Fc-CNP fusion: Strep-tag II, TEV site, human IgG-1 Fc, 16-amino acid glycine-rich linker, CNP22; SEQ ID NO: 502",treatment time after which crown-rump length in vivo differed significantly from Vehicle,Tx-30,2 weeks
same,treatment time after which tail length in vivo differed significantly from Vehicle,Tx-30,2 weeks
same,treatment time after which tibia length in vivo differed significantly from Vehicle,Tx-30,4 weeks
same,treatment time after which crown-rump length in vivo differed significantly from Vehicle,Tx-100,2 weeks
same,treatment time after which tail length in vivo differed significantly from Vehicle,Tx-100,2 weeks
same,treatment time after which tibia length in vivo differed significantly from Vehicle,Tx-100,2 weeks
same,% Δ Cervical segment (X-Ray) compared to Vehicle,[1],8.8%
same,% Δ Circularity index (X-Ray) compared to Vehicle,[1],−1.9%
same,% Δ Crown-rump length in vivo compared to Vehicle,[1],4.4%
same,% Δ Foramen magnum height compared to Vehicle,[1],1.2%
same,% Δ Foramen magnum width compared to Vehicle,[1],1.3%
same,% Δ Left Femur length compared to Vehicle,[1],3.3%
same,% Δ Left Humerus length compared to Vehicle,[1],1.6%
same,% Δ Left Tibia length compared to Vehicle,[1],2.8%
same,% Δ Left Ulna length compared to Vehicle,[1],0.71%
same,% Δ Lumbar segment (X-Ray) compared to Vehicle,[1],6.2%
same,% Δ Metatarsal bone (3rd digit) (X-Ray) compared to Vehicle,[1],5.2%
same,% Δ Naso-anal length (X-Ray) compared to Vehicle,[1],6.5%
same,% Δ Occipital-front distance (X-Ray) compared to Vehicle,[1],1.4%
same,% Δ Right Tibia length in vivo compared to Vehicle,[1],1.1%
same,% Δ Sternum length (X-Ray) compared to Vehicle,[1],6.9%
same,% Δ Tail length in vivo compared to Vehicle,[1],6.1%
same,% Δ Thoracic segment (X-Ray) compared to Vehicle,[1],11.4%
same,% Δ Total CTL segments (X-Ray) compared to Vehicle,[1],8.9%
same,Cervical segment (X-Ray),[1],9.00 mm
same,Circularity index (X-Ray),[1],0.370
same,Crown-rump length in vivo,[1],99.1 mm
same,Foramen magnum height,[1],4.13 mm
same,Foramen magnum width,[1],4.72 mm
same,Left Femur length,[1],15.6* mm
same,Left Humerus length,[1],12.4 mm
same,Left Tibia length,[1],18.5 mm
same,Left Ulna length,[1],14.1 mm
same,Lumbar segment (X-Ray),[1],20.5* mm
same,Metatarsal bone (3rd digit) (X-Ray),[1],24.5* mm
same,Naso-anal length (X-Ray),[1],115* mm
same,Occipital-front distance (X-Ray),[1],42.9 mm
same,Right Tibia length in vivo,[1],19.0 mm
same,Sternum length (X-Ray),[1],38.5* mm
same,Tail length in vivo,[1],102 mm
same,Thoracic segment (X-Ray),[1],25.5* mm
same,Total CTL segments (X-Ray),[1],55.0* mm
same,Δ Cervical segment (X-Ray) compared to Vehicle,[1],0.73 mm
same,Δ Circularity index (X-Ray) compared to Vehicle,[1],−0.007
same,Δ Crown-rump length in vivo compared to Vehicle,[1],4.2 mm
same,Δ Foramen magnum height compared to Vehicle,[1],0.05 mm
same,Δ Foramen magnum width compared to Vehicle,[1],0.06 mm
same,Δ Left Femur length compared to Vehicle,[1],0.5 mm
same,Δ Left Humerus length compared to Vehicle,[1],0.2 mm
same,Δ Left Tibia length compared to Vehicle,[1],0.5 mm
same,Δ Left Ulna length compared to Vehicle,[1],0.10 mm
same,Δ Lumbar segment (X-Ray) compared to Vehicle,[1],1.2 mm
same,Δ Metatarsal bone (3rd digit) (X-Ray) compared to Vehicle,[1],1.2 mm
same,Δ Naso-anal length (X-Ray) compared to Vehicle,[1],7.0 mm
same,Δ Occipital-front distance (X-Ray) compared to Vehicle,[1],0.6 mm
same,Δ Right Tibia length in vivo compared to Vehicle,[1],0.20 mm
same,Δ Sternum length (X-Ray) compared to Vehicle,[1],2.5 mm
same,Δ Tail length in vivo compared to Vehicle,[1],5.9 mm
same,Δ Thoracic segment (X-Ray) compared to Vehicle,[1],2.6 mm
same,Δ Total CTL segments (X-Ray) compared to Vehicle,[1],4.5 mm
same,% Δ Cervical segment (X-Ray) compared to Vehicle,[2],13.8%
same,% Δ Circularity index (X-Ray) compared to Vehicle,[2],−4.0%
same,% Δ Crown-rump length in vivo compared to Vehicle,[2],7.5%
same,% Δ Foramen magnum height compared to Vehicle,[2],0.98%
same,% Δ Foramen magnum width compared to Vehicle,[2],1.5%
same,% Δ Left Femur length compared to Vehicle,[2],6.0%
same,% Δ Left Humerus length compared to Vehicle,[2],2.5%
same,% Δ Left Tibia length compared to Vehicle,[2],5.0%
same,% Δ Left Ulna length compared to Vehicle,[2],3.6%
same,% Δ Lumbar segment (X-Ray) compared to Vehicle,[2],9.3%
same,% Δ Metatarsal bone (3rd digit) (X-Ray) compared to Vehicle,[2],6.4%
same,% Δ Naso-anal length (X-Ray) compared to Vehicle,[2],9% and 9.3%
same,% Δ Occipital-front distance (X-Ray) compared to Vehicle,[2],1.2%
same,% Δ Right Tibia length in vivo compared to Vehicle,[2],3.2%
same,% Δ Sternum length (X-Ray) compared to Vehicle,[2],10.8%
same,% Δ Tail length in vivo compared to Vehicle,[2],10.3%
same,% Δ Thoracic segment (X-Ray) compared to Vehicle,[2],14.4%
same,% Δ Total CTL segments (X-Ray) compared to Vehicle,[2],12.3%
same,Cervical segment (X-Ray),[2],9.41* mm
same,Circularity index (X-Ray),[2],0.362
same,Crown-rump length in vivo,[2],102* mm
same,Foramen magnum height,[2],4.12 mm
same,Foramen magnum width,[2],4.73 mm
same,Left Femur length,[2],16.0* mm
same,Left Humerus length,[2],12.5* mm
same,Left Tibia length,[2],18.9* mm
same,Left Ulna length,[2],14.5 mm
same,Lumbar segment (X-Ray),[2],21.1* mm
same,Metatarsal bone (3rd digit) (X-Ray),[2],24.8* mm
same,Naso-anal length (X-Ray),[2],118* mm
same,Occipital-front distance (X-Ray),[2],42.8 mm
same,Right Tibia length in vivo,[2],19.4* mm
same,Sternum length (X-Ray),[2],39.9* mm
same,Tail length in vivo,[2],106* mm
same,Thoracic segment (X-Ray),[2],26.2* mm
same,Total CTL segments (X-Ray),[2],56.7* mm
same,Δ Cervical segment (X-Ray) compared to Vehicle,[2],1.14 mm
same,Δ Circularity index (X-Ray) compared to Vehicle,[2],−0.015
same,Δ Crown-rump length in vivo compared to Vehicle,[2],7.1 mm
same,Δ Foramen magnum height compared to Vehicle,[2],0.04 mm
same,Δ Foramen magnum width compared to Vehicle,[2],0.07 mm
same,Δ Left Femur length compared to Vehicle,[2],0.9 mm
same,Δ Left Humerus length compared to Vehicle,[2],0.3 mm
same,Δ Left Tibia length compared to Vehicle,[2],0.9 mm
same,Δ Left Ulna length compared to Vehicle,[2],0.5 mm
same,Δ Lumbar segment (X-Ray) compared to Vehicle,[2],1.8 mm
same,Δ Metatarsal bone (3rd digit) (X-Ray) compared to Vehicle,[2],1.5 mm
same,Δ Naso-anal length (X-Ray) compared to Vehicle,[2],10 mm
same,Δ Occipital-front distance (X-Ray) compared to Vehicle,[2],0.5 mm
same,Δ Right Tibia length in vivo compared to Vehicle,[2],0.60 mm
same,Δ Sternum length (X-Ray) compared to Vehicle,[2],3.9 mm
same,Δ Tail length in vivo compared to Vehicle,[2],9.9 mm
same,Δ Thoracic segment (X-Ray) compared to Vehicle,[2],3.3 mm
same,Δ Total CTL segments (X-Ray) compared to Vehicle,[2],6.2 mm
same,% Δ Cervical segment (X-Ray) compared to Vehicle,[3],20.3%
same,% Δ Circularity index (X-Ray) compared to Vehicle,[3],−7.4%
same,% Δ Crown-rump length in vivo compared to Vehicle,[3],12.7%
same,% Δ Foramen magnum height compared to Vehicle,[3],2.2%
same,% Δ Foramen magnum width compared to Vehicle,[3],1.3%
same,% Δ Left Femur length compared to Vehicle,[3],10% and 9.9%
same,% Δ Left Humerus length compared to Vehicle,[3],6% and 5.7%
same,% Δ Left Tibia length compared to Vehicle,[3],7% and 7.2%
same,% Δ Left Ulna length compared to Vehicle,[3],6% and 5.7%
same,% Δ Lumbar segment (X-Ray) compared to Vehicle,[3],13.5%
same,% Δ Metatarsal bone (3rd digit) (X-Ray) compared to Vehicle,[3],12.0%
same,% Δ Naso-anal length (X-Ray) compared to Vehicle,[3],13%
same,% Δ Occipital-front distance (X-Ray) compared to Vehicle,[3],2.1%
same,% Δ Right Tibia length in vivo compared to Vehicle,[3],6.4%
same,% Δ Sternum length (X-Ray) compared to Vehicle,[3],12.5%
same,% Δ Tail length in vivo compared to Vehicle,[3],16.5%
same,% Δ Thoracic segment (X-Ray) compared to Vehicle,[3],21.0%
same,% Δ Total CTL segments (X-Ray) compared to Vehicle,[3],17.8%
same,Cervical segment (X-Ray),[3],9.95* mm
same,Circularity index (X-Ray),[3],0.349*
same,Crown-rump length in vivo,[3],107* mm
same,Foramen magnum height,[3],4.17 mm
same,Foramen magnum width,[3],4.72 mm
same,Left Femur length,[3],16.6* mm
same,Left Humerus length,[3],12.9* mm
same,Left Tibia length,[3],19.3* mm
same,Left Ulna length,[3],14.8* mm
same,Lumbar segment (X-Ray),[3],21.9* mm
same,Metatarsal bone (3rd digit) (X-Ray),[3],26.1* mm
same,Naso-anal length (X-Ray),[3],122* mm
same,Occipital-front distance (X-Ray),[3],43.2* mm
same,Right Tibia length in vivo,[3],20.0* mm
same,Sternum length (X-Ray),[3],40.5* mm
same,Tail length in vivo,[3],112* mm
same,Thoracic segment (X-Ray),[3],27.7* mm
same,Total CTL segments (X-Ray),[3],59.5* mm
same,Δ Cervical segment (X-Ray) compared to Vehicle,[3],1.68 mm
same,Δ Circularity index (X-Ray) compared to Vehicle,[3],−0.028
same,Δ Crown-rump length in vivo compared to Vehicle,[3],12.1 mm
same,Δ Foramen magnum height compared to Vehicle,[3],0.09 mm
same,Δ Foramen magnum width compared to Vehicle,[3],0.06 mm
same,Δ Left Femur length compared to Vehicle,[3],1.5 mm
same,Δ Left Humerus length compared to Vehicle,[3],0.7 mm
same,Δ Left Tibia length compared to Vehicle,[3],1.3 mm
same,Δ Left Ulna length compared to Vehicle,[3],0.8 mm
same,Δ Lumbar segment (X-Ray) compared to Vehicle,[3],2.6 mm
same,Δ Metatarsal bone (3rd digit) (X-Ray) compared to Vehicle,[3],2.8 mm
same,Δ Naso-anal length (X-Ray) compared to Vehicle,[3],14 mm
same,Δ Occipital-front distance (X-Ray) compared to Vehicle,[3],0.9 mm
same,Δ Right Tibia length in vivo compared to Vehicle,[3],1.2 mm
same,Δ Sternum length (X-Ray) compared to Vehicle,[3],4.5 mm
same,Δ Tail length in vivo compared to Vehicle,[3],15.9 mm
same,Δ Thoracic segment (X-Ray) compared to Vehicle,[3],4.8 mm
same,Δ Total CTL segments (X-Ray) compared to Vehicle,[3],9.0 mm

# Source: patent publication US9266939B2, “Compositions comprising natriuretic peptides and methods of use thereof” (Alexion Pharmaceuticals, Inc., priority 2010, dated 2016)
